# Measurements: article PMC11855144, “Role of Human DNA Ligases in Mediating Pharmacological Activities of Flavonoids” (International Journal of Molecular Sciences, 2025)
# Assays:
# human DNA ligase I = human DNA ligase I (Homo sapiens, UniProt P18858); assay: nick-sealing DNA ligase assay (gel electrophoresis), DNA ligase I; assay type: biochemical; conditions: ATP 10 μM, DNA substrate 50 nM, human DNA ligase I 0.5 nM; for IC50: read-out: IC50 against human DNA ligase I (converted)
# Protocol: In this study, a standard nick-sealing assay was used to identify potential human DNA ligase inhibitors from representative flavonoids. […] Selected flavonoids with the resorcinol moiety in their A rings were tested as potential DNA ligase inhibitors. Epigallocatechin gallate (EGCG) is also a flavonoid found in plants, herbs, fruits, and green tea. Rutin is a flavonoid glycoside combining the flavonol quercetin and the disaccharide rutinose found in a wide variety of plants, including citrus. Quercetin is a plant flavonoid found in many fruits, vegetables, and other foods.
# Figure 3 The effects of selected flavonoids on human DNA ligase I activity. DNA ligase assays were performed in reaction mixtures in the presence of ATP (10 μM), DNA substrate (50 nM), and human DNA ligase I (0.5 nM) as previously described.
# Figure 4 The effects of cyaniding and rosinidin on human DNA ligase I activity. DNA ligase assays were performed in reaction mixtures in the presence of ATP (10 μM), DNA substrate (50 nM), and human DNA ligase I (0.5 nM) as previously described.
# (§1) A 39 base pair nicked duplex was constructed and used as a substrate for the ligase reaction. In brief, the first 19 base pair oligonucleotide (5′-CGTAAAACGACGGCCAGTG-3′) and the second 20 base pair oligonucleotide (5′-[…]-3′) labeled with radioactive ^32P were annealed to the complementary 39 base pair oligonucleotide (5′-[…]-3′) to construct a 39 base pair nicked duplex as previously described. The resulting nicked duplex DNA was purified via 8% nondenaturing polyacrylamide gel electrophoresis.
# (§2) DNA ligase I activity was routinely assayed according to a modified procedure described previously by determining the ligation of two oligonucleotides, which are hybridized to a complementary 39-mer oligonucleotide. Ligation of 5′-[^32P] end-labeled 20-mer oligonucleotide to the unlabeled 19-mer oligonucleotide was analyzed via polyacrylamide gel electrophoresis in the presence of 8 M urea. The assays were performed at least twice, and representative data are shown in this paper.
# Caco-2 cells = assay: Caco-2 cell growth and morphology (phase contrast microscopy); assay type: cell-based, human
# From the text: (§3) Some flavonoids are known to be cytotoxic to different types of human cancer cell lines. […] Phase contrast views reveal that rutin-treated cells are relatively thin and shrunken, consistent with the reduced cellular densities commonly observed in cultures exposed to cytotoxic agents (Figure 7A). […] The γH2AX is a sensitive and selective marker for DSBs, as phosphorylation of H2AX (γH2AX) is increased at such breakage sites. […] Phase contrast micrographs of Caco-2 cells treated with various concentrations of rutin for 48 h. Photographs taken at 10× magnification: (A) increased expressions of γH2AX protein in Caco-2 cells incubated with rutin for 48 h, compared with corresponding solvent control group, as measured via Western blot (B). The human intestinal Caco-2 cells were grown at 37 °C and 5% CO2 in a humidified atmosphere, and treated and untreated control cells were examined using an inverted phase-contrast microscope (Fisher Scientific Inverted Phase Contrast Microscope EQ-006, Pittsburgh, PA, USA) to assess cell shape and morphology.
# human DNA ligase III = target: T1, human DNA ligase III (Homo sapiens, UniProt P49916); assay: nick-sealing DNA ligase assay, DNA ligase III; assay type: biochemical; conditions: ATP 10 μM, DNA substrate 50 nM; read-out: IC50 against human DNA ligase III (converted)
# T1 sequence (P49916 43-1009): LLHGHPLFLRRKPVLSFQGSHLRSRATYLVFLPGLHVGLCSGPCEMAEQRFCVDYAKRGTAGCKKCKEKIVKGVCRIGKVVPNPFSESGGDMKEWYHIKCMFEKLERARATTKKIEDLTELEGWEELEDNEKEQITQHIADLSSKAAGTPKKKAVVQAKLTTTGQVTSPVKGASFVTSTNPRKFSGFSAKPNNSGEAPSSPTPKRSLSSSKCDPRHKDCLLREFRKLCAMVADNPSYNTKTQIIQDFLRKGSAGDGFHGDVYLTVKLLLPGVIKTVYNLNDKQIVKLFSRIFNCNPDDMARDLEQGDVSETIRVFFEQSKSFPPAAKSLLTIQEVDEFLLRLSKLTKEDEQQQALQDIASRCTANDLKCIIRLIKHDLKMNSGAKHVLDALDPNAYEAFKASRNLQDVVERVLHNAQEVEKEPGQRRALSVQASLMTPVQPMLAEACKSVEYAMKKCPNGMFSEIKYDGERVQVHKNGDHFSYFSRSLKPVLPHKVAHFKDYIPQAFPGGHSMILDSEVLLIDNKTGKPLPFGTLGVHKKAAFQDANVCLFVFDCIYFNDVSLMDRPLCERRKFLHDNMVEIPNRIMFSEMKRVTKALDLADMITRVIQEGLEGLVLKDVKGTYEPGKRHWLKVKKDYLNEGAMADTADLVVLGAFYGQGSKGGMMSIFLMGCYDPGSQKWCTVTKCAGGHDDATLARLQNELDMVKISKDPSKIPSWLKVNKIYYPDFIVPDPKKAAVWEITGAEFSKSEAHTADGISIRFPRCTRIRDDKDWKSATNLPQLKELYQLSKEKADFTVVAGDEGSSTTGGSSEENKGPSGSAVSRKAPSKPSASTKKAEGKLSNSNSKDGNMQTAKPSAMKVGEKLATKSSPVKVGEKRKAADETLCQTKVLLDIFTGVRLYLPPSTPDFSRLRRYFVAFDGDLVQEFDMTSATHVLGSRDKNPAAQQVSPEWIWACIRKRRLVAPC
# Protocol: (§4) To validate the results from the molecular modeling studies, we also tested the effects of rutin on human DNA ligase III and IV activity.
# (§5) Figure 6 The effects of rutin on human DNA ligases III and IV activities. DNA ligase assays were performed in reaction mixtures in the presence of ATP (10 μM), DNA substrate (50 nM), and human DNA ligase I (0.5 nM) as previously described.
# as §1, §2
# human DNA ligase IV = target: T2, human DNA ligase IV (Homo sapiens, UniProt P49917); assay: nick-sealing DNA ligase assay, DNA ligase IV; assay type: biochemical; conditions: ATP 10 μM, DNA substrate 50 nM; read-out: IC50 against human DNA ligase IV (converted)
# T2 sequence (P49917 1-911): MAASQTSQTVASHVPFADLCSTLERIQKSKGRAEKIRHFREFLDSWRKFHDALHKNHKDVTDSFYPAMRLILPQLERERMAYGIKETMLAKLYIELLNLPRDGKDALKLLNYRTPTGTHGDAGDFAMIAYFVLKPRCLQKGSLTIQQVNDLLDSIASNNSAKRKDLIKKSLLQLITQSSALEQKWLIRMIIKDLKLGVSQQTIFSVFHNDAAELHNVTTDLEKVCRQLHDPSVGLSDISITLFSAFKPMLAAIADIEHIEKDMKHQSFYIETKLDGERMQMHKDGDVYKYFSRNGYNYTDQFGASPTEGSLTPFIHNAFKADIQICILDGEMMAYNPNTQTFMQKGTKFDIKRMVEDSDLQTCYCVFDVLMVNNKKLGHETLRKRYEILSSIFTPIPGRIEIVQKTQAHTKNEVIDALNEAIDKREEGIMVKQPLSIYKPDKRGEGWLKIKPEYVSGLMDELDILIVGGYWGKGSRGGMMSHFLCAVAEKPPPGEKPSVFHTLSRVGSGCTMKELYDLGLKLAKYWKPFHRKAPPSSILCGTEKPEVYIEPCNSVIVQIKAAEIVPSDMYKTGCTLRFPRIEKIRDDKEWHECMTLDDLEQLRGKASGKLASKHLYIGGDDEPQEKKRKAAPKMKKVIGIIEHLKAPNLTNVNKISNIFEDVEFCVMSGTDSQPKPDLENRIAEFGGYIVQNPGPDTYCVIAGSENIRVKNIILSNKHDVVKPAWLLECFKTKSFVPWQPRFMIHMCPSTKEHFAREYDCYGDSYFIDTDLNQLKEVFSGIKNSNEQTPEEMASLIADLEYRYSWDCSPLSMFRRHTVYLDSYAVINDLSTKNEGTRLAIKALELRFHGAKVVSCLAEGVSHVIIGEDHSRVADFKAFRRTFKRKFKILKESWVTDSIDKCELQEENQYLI
# Protocol: as §4, §5, §1, §2
# γH2AX protein = γH2AX protein level in Caco-2 cells (Western blot); assay type: cell-based, human; conditions: 48 h, versus solvent control
# From the text: as §3, with “(B).” for “(B). The human intestinal Caco-2 cells were grown at 37 °C and 5% CO2 in a humidified atmosphere, and treated and untreated control cells were examined using an inverted phase-contrast microscope (Fisher Scientific Inverted Phase Contrast Microscope EQ-006, Pittsburgh, PA, USA) to assess cell shape and morphology.”
# Chain of human DNA ligase I (P18858 whole entry): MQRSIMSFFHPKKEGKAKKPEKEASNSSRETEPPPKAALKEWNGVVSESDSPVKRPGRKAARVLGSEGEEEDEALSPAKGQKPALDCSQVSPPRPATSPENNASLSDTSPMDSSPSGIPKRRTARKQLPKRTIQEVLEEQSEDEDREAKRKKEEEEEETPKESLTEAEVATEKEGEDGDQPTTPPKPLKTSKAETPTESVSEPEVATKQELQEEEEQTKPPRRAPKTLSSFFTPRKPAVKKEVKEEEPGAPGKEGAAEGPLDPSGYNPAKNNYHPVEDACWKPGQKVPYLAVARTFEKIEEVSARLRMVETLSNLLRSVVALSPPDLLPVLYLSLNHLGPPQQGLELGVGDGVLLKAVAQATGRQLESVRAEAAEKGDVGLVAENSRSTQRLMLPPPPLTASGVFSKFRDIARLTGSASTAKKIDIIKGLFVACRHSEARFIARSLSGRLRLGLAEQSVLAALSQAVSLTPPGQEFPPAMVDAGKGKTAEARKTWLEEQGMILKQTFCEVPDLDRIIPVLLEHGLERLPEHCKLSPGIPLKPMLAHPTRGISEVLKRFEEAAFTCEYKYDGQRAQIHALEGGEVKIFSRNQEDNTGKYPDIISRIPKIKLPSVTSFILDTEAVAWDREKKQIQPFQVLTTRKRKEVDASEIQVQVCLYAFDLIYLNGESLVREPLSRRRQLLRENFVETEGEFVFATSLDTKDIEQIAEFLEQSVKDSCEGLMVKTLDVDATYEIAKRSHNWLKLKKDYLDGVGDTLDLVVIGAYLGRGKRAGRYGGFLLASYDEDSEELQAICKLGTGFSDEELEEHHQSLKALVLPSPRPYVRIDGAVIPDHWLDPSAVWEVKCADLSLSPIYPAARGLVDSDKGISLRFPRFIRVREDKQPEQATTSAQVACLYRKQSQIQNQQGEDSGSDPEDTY
structure (smiles),measurement,setting,value
COc1cc(O)c2cc(O)c(-c3ccc(O)c(OC)c3)[o+]c2c1 [rosinidin],activity against human DNA ligase I,human DNA ligase I,little activity
Oc1cc(O)c2c(c1)O[C@H](c1cc(O)c(O)c(O)c1)[C@H](O)C2 [epigallocatechin],IC50,human DNA ligase I,1.63 µM
O=c1c(O)c(-c2ccc(O)c(O)c2)oc2cc(O)cc(O)c12 [quercetin],IC50,human DNA ligase I,1.65 µM
Oc1cc(O)c2cc(O)c(-c3ccc(O)c(O)c3)[o+]c2c1 [cyanidin],IC50,human DNA ligase I,~3.48 µM
C[C@@H]1O[C@@H](OC[C@H]2O[C@@H](Oc3c(-c4ccc(O)c(O)c4)oc4cc(O)cc(O)c4c3=O)[C@H](O)[C@@H](O)[C@@H]2O)[C@H](O)[C@H](O)[C@H]1O [rutin],effect on cell growth,"Caco-2 cells; Caco-2 cells, 48 h, concentrations lower than IC50",inhibitory effect on cell growth
same,IC50,"Caco-2 cells; Homo sapiens, Caco-2",25 µg/mL
same,IC50,human DNA ligase III,0.819 µM
same,IC50,human DNA ligase IV,1.64 µM
same,IC50,human DNA ligase I,4.91 µM
same,levels of γH2AX protein,γH2AX protein,increases levels of γH2AX protein in a dose-dependent manner
